# Patent US20100137313A1 (ASTRAZENECA AB, priority 2008, published 2010)
# Target: S. pneumoniae Topoisomerase IV ATPase (ParE) (Streptococcus pneumoniae serotype 4, UniProt Q59961)
# Test: S. pneumoniae Topoisomerase IV ATPase inhibition
# Type: biochemical
# Conditions: values marked * are an average of two or more data points, 13 µM
# Summary of the method: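 S. pneumoniae ParE (1.25 nM) ATPase with 160 μM ATP and 5 μg/ml sheared DNA in pH 8.0 Tris, Mg2+, DTT, Brij-35; phosphate detected by malachite green/molybdate at 650 nm. Normalised to 2% DMSO (0%) and 20 μM EDTA (100%); IC50 from 10 concentrations.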
# Sequence of S. pneumoniae Topoisomerase IV ATPase (ParE) (Q59961 whole entry): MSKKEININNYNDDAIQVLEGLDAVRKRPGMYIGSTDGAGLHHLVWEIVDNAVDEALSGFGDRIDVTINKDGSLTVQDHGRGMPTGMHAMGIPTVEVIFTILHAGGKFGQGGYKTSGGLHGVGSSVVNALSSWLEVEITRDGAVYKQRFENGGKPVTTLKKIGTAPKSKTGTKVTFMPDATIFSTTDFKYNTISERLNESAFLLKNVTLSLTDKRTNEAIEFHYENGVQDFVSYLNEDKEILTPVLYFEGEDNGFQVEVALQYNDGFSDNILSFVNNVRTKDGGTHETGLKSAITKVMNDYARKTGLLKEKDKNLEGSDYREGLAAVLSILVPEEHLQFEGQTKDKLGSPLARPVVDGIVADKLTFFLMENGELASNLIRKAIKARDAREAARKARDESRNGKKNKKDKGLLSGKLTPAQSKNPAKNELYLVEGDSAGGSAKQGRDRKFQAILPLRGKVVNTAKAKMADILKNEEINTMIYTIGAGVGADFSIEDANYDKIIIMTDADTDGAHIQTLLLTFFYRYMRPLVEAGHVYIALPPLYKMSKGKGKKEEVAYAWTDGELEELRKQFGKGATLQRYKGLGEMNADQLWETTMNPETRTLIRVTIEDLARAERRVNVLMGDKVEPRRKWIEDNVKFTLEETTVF
row,Compound,% Inh (13 μM) of S. pneumoniae Topoisomerase IV ATPase [%]
1,"COc1ccc(C(=O)O)cc1-c1cnc(Nc2ccc(F)c(Cl)c2)nc1-n1ccc(C(F)(F)F)n1 [Example 1128, 3-(2-(3-chloro-4-fluorophenylamino)-4-(3-(trifluoromethyl)-1H-pyrazol-1-yl)pyrimidin-5-yl)-4-methoxybenzoic acid]",67

# Same assay, conditions: values marked * are an average of two or more data points, read-out: % Inh (13 μM) of S. pneumoniae Topoisomerase IV ATPase
row,Compound,inhibition at 13 µM [%]
1,"COc1cc(Nc2ncc(-c3cncnc3)c(-n3nc(C(F)(F)F)cc3C)n2)cc(C(F)(F)F)c1 [Example 882, N-(3-methoxy-5-(trifluoromethyl)phenyl)-4-(5-methyl-3-(trifluoromethyl)-1H-pyrazol-1-yl)-5,5′-bipyrimidin-2-amine]",100
2,"CC(=O)Nc1ccn(-c2nc(Nc3ccc(F)c(Cl)c3)ncc2-c2cccc(/C=C/C(=O)O)c2)n1 [Example 566, (2E)-3-(3-{4-[3-(acetylamino)-1H-pyrazol-1-yl]-2-[(3-chloro-4-fluorophenyl)amino]pyrimidin-5-yl}phenyl)prop-2-enoic acid]",52
3,"COc1ncc(-c2cnc(Nc3cc(C)cc(Cl)c3)nc2-n2ccc(C(F)(F)F)n2)cc1C(=O)NS(C)(=O)=O [Example 800, 5-{2-[(3-chloro-5-methylphenyl)amino]-4-[3-(trifluoromethyl)-1H-pyrazol-1-yl]pyrimidin-5-yl}-2-methoxy-N-(methylsulfonyl)pyridine-3-carboxamide]",99
4,"COc1cc(Nc2ncc(-c3c[nH]c(=O)c(C(=O)O)c3)c(-n3nc(C(F)(F)F)cc3C)n2)cc(OC)c1 [Example 1098, 5-(2-(3,5-Dimethoxyphenylamino)-4-(5-methyl-3-(trifluoromethyl)-1H-pyrazol-1-yl)pyrimidin-5-yl)-2-oxo-1,2-dihydropyridine-3-carboxylic acid]",100
5,"O=C(O)/C=C/c1cccc(-c2cnc(Nc3ccc(F)c(Cl)c3)nc2-n2cnc(Cl)c2Cl)c1 [Example 331, (2E)-3-(3-{2-[(3-chloro-4-fluorophenyl)amino]-4-(4,5-dichloro-1H-imidazol-1-yl)pyrimidin-5-yl}phenyl)prop-2-enoic acid]",59.8
6,"O=C(O)c1cncc(-c2cnc(Nc3ccc(F)c(Cl)c3)nc2NCCCN2CCOCC2)c1 [Example 233, 5-[2-[(3-chloro-4-fluorophenyl)amino]-4-(3-morpholin-4-ylpropylamino)pyrimidin-5-yl]pyridine-3-carboxylic acid]",75.4
7,"Cc1cc(C(F)F)nn1-c1nc(Nc2ccc(F)c(Cl)c2)ncc1-c1cccc(/C=C/C(=O)O)c1 [Example 563, (2E)-3-(3-{2-[(3-chloro-4-fluorophenyl)amino]-4-[3-(difluoromethyl)-5-methyl-1H-pyrazol-1-yl]pyrimidin-5-yl}phenyl)prop-2-enoic acid]",100
8,"COc1cc(Nc2ncc(-c3cnc(OC)c(C(=O)O)c3)c(-n3ccc(C4CC4)n3)n2)cc(OC)c1 [Example 1143, 5-(4-(3-cyclopropyl-1H-pyrazol-1-yl)-2-(3,5-dimethoxyphenylamino)pyrimidin-5-yl)-2-methoxynicotinic acid]",100
9,"COCCCNc1nc(Nc2ccc(F)c(Cl)c2)ncc1-c1nc(-c2cncn2C)cs1 [Example 504, N^2-(3-chloro-4-fluorophenyl)-N^4-(3-methoxypropyl)-5-[4-(1-methyl-1H-imidazol-5-yl)-1,3-thiazol-2-yl]pyrimidine-2,4-diamine]",83
10,"COc1cc(Nc2ncc(-c3cnc(OC)c(C(=O)NS(C)(=O)=O)c3)c(-n3nc(C(F)(F)F)nc3C)n2)cc(OC)c1 [Example 1153, 5-(2-(3,5-dimethoxyphenylamino)-4-(5-methyl-3-(trifluoromethyl)-1H-1,2,4-triazol-1-yl)pyrimidin-5-yl)-2-methoxy-N-(methylsulfonyl)nicotinamide]",100
11,"COC(=O)c1cc2cc(-c3cnc(Nc4ccc(F)c(Cl)c4)nc3NCCCN(C)C)ccc2s1 [Example 22, Methyl 5-{2-(3-chloro-4-fluorophenylamino)-4-[3-(dimethylamino)propylamino]pyrimidin-5-yl}benzo[b]thiophene-2-carboxylate]",85.3
12,"Cc1cc(C(F)(F)F)nn1-c1nc(Nc2ccc(F)c(Cl)c2)ncc1-c1cncc(C(=O)O)c1 [Example 319, 5-{2-[(3-chloro-4-fluorophenyl)amino]-4-[5-methyl-3-(trifluoromethyl)-1H-pyrazol-1-yl]pyrimidin-5-yl}pyridine-3-carboxylic acid]",90.6
13,"CC1CCCN1c1nc(Nc2ccc(F)c(Cl)c2)ncc1-c1cncc(C(=O)O)c1 (stereo not shown) [Example 251, 5-[2-[(3-chloro-4-fluorophenyl)amino]-4-(2-methylpyrrolidin-1-yl)pyrimidin-5-yl]pyridine-3-carboxylic acid]",79.9
14,"Cc1cc(C(F)(F)F)nn1-c1nc(Nc2cc(F)cc(F)c2)ncc1-c1cncc(C(=O)O)c1 [Example 640, 5-{2-[(3,5-difluorophenyl)amino]-4-[5-methyl-3-(trifluoromethyl)-1H-pyrazol-1-yl]pyrimidin-5-yl}pyridine-3-carboxylic acid]",100
15,"Cc1cc(C)cc(Nc2ncc(-c3cccc(/C=C/C(=O)O)c3)c(N3CCOCC3)n2)c1 [Example 405, (E)-3-{3-[2-(3,5-Dimethyl-phenylamino)-4-morpholin-4-yl-pyrimidin-5-yl]-phenyl}-acrylic acid]",85
16,"CS(=O)(=O)c1cncc(-c2cnc(Nc3ccc(F)c(Cl)c3)nc2-n2ccc(C(F)(F)F)n2)c1 [Example 990, N-(3-chloro-4-fluorophenyl)-5-(5-(methylsulfonyl)pyridin-3-yl)-4-(3-(trifluoromethyl)-1H-pyrazol-1-yl)pyrimidin-2-amine]",100
17,"COc1cc(Nc2ncc(-c3cnc(OC)c(C(=O)NS(=O)(=O)c4sc(C)nc4C)c3)c(-n3nc(C(F)(F)F)cc3C)n2)cc(OC)c1 [Example 837, 5-{2-[(3,5-dimethoxyphenyl)amino]-4-[5-methyl-3-(trifluoromethyl)-1H-pyrazol-1-yl]pyrimidin-5-yl}-N-[(2,4-dimethyl-1,3-thiazol-5-yl)sulfonyl]-2-methoxypyridine-3-carboxamide]",94
18,"Cc1cc(C)cc(Nc2ncc(-c3ccc4c(c3)C(=O)NS4(=O)=O)c(-n3nc(C(F)(F)F)cc3C)n2)c1 [Example 832, 5-{2-[(3,5-dimethylphenyl)amino]-4-[5-methyl-3-(trifluoromethyl)-1H-pyrazol-1-yl]pyrimidin-5-yl}-1,2-benzothiazol-3(2H)-one 1,1-dioxide]",100
19,"O=C(O)c1cc(-c2cnc(Nc3ccc(F)c(Cl)c3)nc2-n2ccc(C(F)(F)F)n2)c[nH]c1=O [Example 1092, 5-(2-(3-Chloro-4-fluorophenylamino)-4-(3-(trifluoromethyl)-1H-pyrazol-1-yl)pyrimidin-5-yl)-2-oxo-1,2-dihydropyridine-3-carboxylic acid]",100
20,"O=C(O)c1cncc(-c2cnc(Nc3ccc(F)c(Cl)c3)nc2N2CCC(O)C2)c1 (stereo not shown) [Example 250, 5[2-[(3-chloro-4-fluorophenyl)amino]-4-(3-hydroxypyrrolidin-1-yl)pyrimidin-5-yl]pyridine-3-carboxylic acid]",74.4
21,"CN1CCN(CCNc2nc(Nc3ccc(F)c(Cl)c3)ncc2-c2cccc(/C=C/C(=O)O)c2)CC1 [Example 270, (2E)-3-[3-(2-[(3-chloro-4-fluorophenyl)amino]-4-{[2-(4-methylpiperazin-1-yl)ethyl]amino}pyrimidin-5-yl)phenyl]prop-2-enoic acid]",87.7
